What was measured:
[1] = biological target: Prothrombin (Homo sapiens, UniProt P00734); assay: In vitro activity against human alpha thrombin was determined
[2] = species on record: Rattus norvegicus; assay: Thrombin time was measured in rat arterial thrombosis model; format: functional
[3] = species on record: Rattus norvegicus; assay: Activated partial thromboplastin time was measured in rat arterial thrombosis model; format: functional
[4] = species on record: Rattus norvegicus; assay: Mean occulation time was measured in rat arterial thrombosis model; format: functional
[5] = biological target: Serine protease 1 (Homo sapiens, UniProt P07477); assay: In vitro activity against human alpha trypsin was determined
[6] = Oral bioavailability in rat (dose 30 mg/kg); format: ADME, organism-based; details: in vivo

Serine protease 1, sequence (P07477 whole entry): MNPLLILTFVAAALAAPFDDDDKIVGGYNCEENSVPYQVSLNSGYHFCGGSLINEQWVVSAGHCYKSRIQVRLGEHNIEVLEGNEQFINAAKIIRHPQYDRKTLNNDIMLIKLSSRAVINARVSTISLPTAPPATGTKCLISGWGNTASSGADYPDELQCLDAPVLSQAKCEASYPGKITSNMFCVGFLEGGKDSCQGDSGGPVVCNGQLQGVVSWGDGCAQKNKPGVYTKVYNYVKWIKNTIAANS

Ki [1] [nM]	Ki [5] [nM]	bioavailability [6] [%]	IC50 [1] [nM]	IC50 [5] [nM]	Compound	TT [2] [s]	APTT [3] [s]	MOT [4] [min]
0.33	2400				CNC(=O)C(=O)C(NC(=O)[C@@H]1CC[C@H]2CN(S(=O)(=O)Cc3ccccc3)CC(=O)N21)[C@H]1CC[C@H](N)CC1 (some centres undefined)	999	47	20
0.09	2200	0.4			N[C@H]1CC[C@H](C(NC(=O)[C@@H]2CC[C@H]3CN(S(=O)(=O)Cc4ccccc4)CC(=O)N32)C(=O)C(=O)O)CC1 (some centres undefined)	938	54	>60
0.72	1400	0.6			N[C@H]1CC[C@H](C(NC(=O)[C@@H]2CC[C@H]3CN(S(=O)(=O)Cc4ccccc4)CC(=O)N32)C(=O)c2nc3ccccc3s2)CC1 (some centres undefined)	339	25	>60
80	65000	0.4			Cc1nc(C(=O)C(NC(=O)[C@@H]2CC[C@H]3CN(S(=O)(=O)Cc4ccccc4)CC(=O)N32)[C@H]2CC[C@H](N)CC2)sc1C(=O)O (some centres undefined)	99	20	16
		0.7	0.1	550	CCCCOC(=O)C(=O)C(NC(=O)[C@@H]1CC[C@H]2CN(S(=O)(=O)Cc3ccccc3)CC(=O)N21)[C@H]1CC[C@H](N)CC1 (some centres undefined)	883	53	47
0.13		1.1			COC(=O)C(=O)C(NC(=O)[C@@H]1CC[C@H]2CN(S(=O)(=O)Cc3ccccc3)CC(=O)N21)[C@H]1CC[C@H](N)CC1 (some centres undefined)	999	46	>60
2.14	29000				N[C@H]1CC[C@H](C(NC(=O)[C@@H]2CC[C@H]3CN(S(=O)(=O)Cc4ccccc4)CC(=O)N32)C(=O)C(=O)NCC(=O)O)CC1 (some centres undefined)			
	> 400000				N[C@H]1CC[C@H](C(NC(=O)[C@@H]2CC[C@H]3CN(S(=O)(=O)Cc4ccccc4)CC(=O)N32)C(=O)c2nnnn2CC(=O)O)CC1 (some centres undefined)			
0.26	150	0.3			CCSC(=O)C(=O)C(NC(=O)[C@@H]1CC[C@H]2CN(S(=O)(=O)Cc3ccccc3)CC(=O)N21)[C@H]1CC[C@H](N)CC1 (some centres undefined)	999	33	49

Compound	Ki [1] [nM]	Ki [5] [nM]	bioavailability [6] [%]	IC50 [1] [nM]	IC50 [5] [nM]	TT [2] [s]	APTT [3] [s]	MOT [4] [min]
N[C@H]1CC[C@H](C(NC(=O)[C@@H]2CC[C@H]3CN(S(=O)(=O)Cc4ccccc4)CC(=O)N32)C(=O)c2nccs2)CC1 (some centres undefined)	3.2	8000	1.8			829	66	> 60
Cn1nnnc1C(=O)C(NC(=O)[C@@H]1CC[C@H]2CN(S(=O)(=O)Cc3ccccc3)CC(=O)N21)[C@H]1CC[C@H](N)CC1 (some centres undefined)	5	35000				322	46	46
